Measured values published in patent publication US7393812B2, “Methylidene mevalonates and their use as herbicides” (Dow AgroSciences LLC, priority 2004, dated 2008).

Columns and labels:
Test in all cases: General herbicidal evaluation, preemergence
Format in all cases: in vivo
Settings in all cases: 16 days after treatment
[1] = tested on: sunflower (Helianthus annus, HELAN)
Description: (§1) Applications of methylidene mevalonate were made either to the foliage (postemergence) or soil (preemergence). Seeds of sunflower (Helianthus annus, HELAN), morningglory (Ipomoea hederacea, IPOHE) velvetleaf (Abutilon theophrasti, ABUTH), pigweed (Amaranthus spp., AMARE), barnyardgrass (Echinochloa crusgalli, ECHCG), giant foxtail (Setaria faberi, SETFA), wild oats (Avena fatua, AVEFA), and blackgrass (Alopecurus myosuroides, ALOMY) were planted in mineral soil (sandy clay loam, 51% sand, 26% silt, 23% clay, 2.8% O.M., pH 7.8) and Metro-mix (Bulk Sak, Inc., Malvern, Ark., USA) for preemergence and postemergence treatments, respectively. Pots receiving preemergence treatments were watered immediately following application. Prior to postemergence treatment, plants were grown in the greenhouse (16 h photoperiod, 27 C) and thinned to a density of 2 to 15 plants pot^−1, depending on species. At the time of postemergence applications, plants were 8-12 days old, 3 to 10 cm in height, and in the 1- to 3-true-leaf stage. Natural light in the greenhouse was supplemented with metal halide lights that provided an average photosynthetic photon flux of 500 μmol m^−2s^−1.
(§2) A sample of sodium methylidene mevalonate was dissolved in 4 mL of distilled water followed by 10 mL of formulation stock “B” (200 mL isopropanol, 20 mL crop oil concentrate, 0.4 g Triton X-155 [Sigma Chemical Co., St. Louis, Mo. 62718], and 78 mL water). This was followed by three 1:1 (v/v) serial dilutions using formulation stock “C” (100 mL isopropanol, 10 mL crop oil concentrate, 0.2 g Triton X-155, 390 mL water, 485 mL acetone and 15 mL DMSO).
(§3) Treatments were made at four different doses (4000, 2000, 1000, and 500 g ha^−1). For preemergence treatments, 1.75 mL of spray solution were applied to the soil surface in each pot using a glass Cornwall syringe fitted with a Teejet SS8001E flat-fan nozzle (Spraying Systems Co., Wheaton, Ill. 60189-7900). For postemergence applications, the foliage of the test plants was sprayed using a DeVilbiss atomizer (DeVilbiss Health Car, Inc., Somerset, Pa. 15501) driven by compressed air at a pressure of 22 kPa. Untreated controls were included.
(§4) Pots were placed in the greenhouse following compound application. Pots from postemergence and preemergence were sub-irrigated and top-watered, respectively, as needed for the duration of the test. Visual injury ratings were taken 9 and 16 days after treatment for postemergence and preemergence applications, respectively, on a 0 to 100 scale where 0 represents no injury and 100 represents complete necrosis.

[2] = tested on: blackgrass (Alopecurus myosuroides, ALOMY)
Description: as §1, §2, §3, §4

[3] = tested on: pigweed (Amaranthus spp., AMARE)
Description: as §1, §2, §3, §4

[4] = tested on: barnyardgrass (Echinochloa crusgalli, ECHCG)
Description: as §1, §2, §3, §4

[5] = tested on: morningglory (Ipomoea hederacea, IPOHE)
Description: as §1, §2, §3, §4

[6] = tested on: wild oats (Avena fatua, AVEFA)
Description: as §1, §2, §3, §4

[7] = tested on: giant foxtail (Setaria faberi, SETFA)
Description: as §1, §2, §3, §4

[8] = tested on: velvetleaf (Abutilon theophrasti, ABUTH)
Description: as §1, §2, §3, §4

Structure (SMILES): C=C(CO)C(C)(O)CC(=O)O (centres unmarked) [methylidene mevalonate, 3-hydroxy-4-(hydroxymethyl)-3-methylpent-4-enoic acid]
- Visual Injury (%) ([1]; 0.5 kg ha^−1, HELAN): 20%
- Visual Injury (%) ([1]; 1.0 kg ha^−1, HELAN): 30%
- Visual Injury (%) ([1]; 2.0 kg ha^−1, HELAN): 30%
- Visual Injury (%) ([1]; 4.0 kg ha^−1, HELAN): 60%
- Visual Injury (%) ([2]; 0.5 kg ha^−1, ALOMY): 0%
- Visual Injury (%) ([2]; 1.0 kg ha^−1, ALOMY): 0%
- Visual Injury (%) ([2]; 2.0 kg ha^−1, ALOMY): 20%
- Visual Injury (%) ([2]; 4.0 kg ha^−1, ALOMY): 30%
- Visual Injury (%) ([3]; 0.5 kg ha^−1, AMARE): 0%
- Visual Injury (%) ([3]; 1.0 kg ha^−1, AMARE): 0%
- Visual Injury (%) ([3]; 2.0 kg ha^−1, AMARE): 30%
- Visual Injury (%) ([3]; 4.0 kg ha^−1, AMARE): 40%
- Visual Injury (%) ([4]; 0.5 kg ha^−1, ECHCG): 0%
- Visual Injury (%) ([4]; 1.0 kg ha^−1, ECHCG): 0%
- Visual Injury (%) ([4]; 2.0 kg ha^−1, ECHCG): 20%
- Visual Injury (%) ([4]; 4.0 kg ha^−1, ECHCG): 30%
- Visual Injury (%) ([5]; 0.5 kg ha^−1, IPOHE): 0%
- Visual Injury (%) ([5]; 1.0 kg ha^−1, IPOHE): 0%
- Visual Injury (%) ([5]; 2.0 kg ha^−1, IPOHE): 0%
- Visual Injury (%) ([5]; 4.0 kg ha^−1, IPOHE): 20%
- Visual Injury (%) ([6]; 0.5 kg ha^−1, AVEFA): 0%
- Visual Injury (%) ([6]; 1.0 kg ha^−1, AVEFA): 0%
- Visual Injury (%) ([6]; 2.0 kg ha^−1, AVEFA): 0%
- Visual Injury (%) ([6]; 4.0 kg ha^−1, AVEFA): 10%
- Visual Injury (%) ([7]; 0.5 kg ha^−1, SETFA): 0%
- Visual Injury (%) ([7]; 1.0 kg ha^−1, SETFA): 0%
- Visual Injury (%) ([7]; 2.0 kg ha^−1, SETFA): 20%
- Visual Injury (%) ([7]; 4.0 kg ha^−1, SETFA): 30%
- Visual Injury (%) ([8]; 0.5 kg ha^−1, ABUTH): 0%
- Visual Injury (%) ([8]; 1.0 kg ha^−1, ABUTH): 0%
- Visual Injury (%) ([8]; 2.0 kg ha^−1, ABUTH): 20%
- Visual Injury (%) ([8]; 4.0 kg ha^−1, ABUTH): 30%
